Measured values published in patent publication US11827690B2, “ApoC-II mimetic peptides” (THE UNITED STATES OF AMERICA, as represented by the …, priority 2017, dated 2023).

Legend:
[1] = test system: obese monkeys with a plasma TG level of greater than 2 mmol/L; assay: in vivo studies in the obese monkey model
Description: Monkeys with a TG level greater than 2 mmol/L were selected, trained and assigned into 3 groups (control, 1 mg/kg Delta6PV, and 5 mg/kg Delta6PV). The desired dose was injected intravenously into the animals at 0 h time point. The monkeys were monitored over the course of 72 hours and blood samples at different time points were collected for biomarker analysis.

apoC-II knockout mice = assay: plasma lipids of apoC-II knockout mice after peptide injection; type: in vivo
[2] = biological target: T1, LPL inhibited by apoC-III (Bos taurus, UniProt P11151); assay: LPL activation assay with Intralipid as substrate and recombinant apoC-III as an inhibitor; type: biochemical; details: Intralipid substrate, FIG. 31
T1 sequence (P11151 29-478): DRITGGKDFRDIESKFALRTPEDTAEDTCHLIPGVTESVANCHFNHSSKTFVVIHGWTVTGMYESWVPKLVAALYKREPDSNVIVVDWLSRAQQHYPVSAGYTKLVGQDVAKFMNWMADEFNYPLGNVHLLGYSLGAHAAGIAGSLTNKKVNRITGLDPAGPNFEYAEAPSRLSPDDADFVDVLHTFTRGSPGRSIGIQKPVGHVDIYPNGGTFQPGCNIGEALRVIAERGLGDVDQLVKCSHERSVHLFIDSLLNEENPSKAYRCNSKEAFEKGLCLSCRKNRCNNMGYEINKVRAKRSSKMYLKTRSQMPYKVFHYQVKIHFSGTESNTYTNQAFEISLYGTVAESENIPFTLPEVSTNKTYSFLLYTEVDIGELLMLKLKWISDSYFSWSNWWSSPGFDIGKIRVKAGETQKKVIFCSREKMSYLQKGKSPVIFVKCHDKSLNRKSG
Description: LPL activity assay: 10 μL of Intralipid, human plasma sample, or mouse plasma sample was added in each well using repeater pipette. 10 μL (or 15 μL in the wells with no LPL control) of PBS and 10 μL of 1% BSA was added in each well using repeater pipette. 10 μL of peptides were added to corresponding wells in vertical triplicates (lowest concentration is on a left, highest is on the right). The plate was spun down at 1000 RPM for 10 seconds to mix and to remove the solutions from the wall of each well. The plate was put on ice and 5 μL of LPL was added using repeater pipette. The plate was spun down again at 1000 RPM for 10 seconds. The plate was covered and put back on ice for an incubation of 30 min. The plate was then moved to 37° C. and incubated for 1 hour.
Free fatty acids (NEFA) assay: 45 μL of 5 nmoL standard and 0 nmoL control (0.2% BSA) were added to corresponding wells. 225 μL of reagent A was added in each well using the reagent tray and 12-channel pipette. The plate was incubated for 10 min before 75 μL of reagent B was added to each well using the reagent tray and 12-channel pipette. The plate was not covered due to the high volume. The absorbance at 550 nm and 660 nm was measured.
LPL assay was performed using Intralipid, high TG human plasma (1:50 dilution), or apoC-III transgenic mouse plasma (1:50 dilution). When Intralipid was used as a substrate, 25 or 50 μM recombinant ApoC-III was added as an inhibitor. When the high TG human plasma was used as a substrate, 25 or 50 μM recombinant ApoC-III was added as an inhibitor with or without pre-incubation at 37° C. for 1 hour. An apoC-II mimetic peptide was added at various concentrations.

C57BL/6 mice (wild-type) = assay: post-prandial serum TG in C57BL/6 mice after oral gavage with vegetable oil; type: in vivo; details: 1 μmoL/kg IP or SQ 30 min before gavage with vegetable oil (10 μL/gram)
Description: C57Bl/6 mice (wild-type), apoC-II knockout (apoC-II KO) mice, and apoC-III transgenic mice were used for in vivo study. The C57Bl/6 mice (wild-type) were purchased from Taconic Biosciences Inc. The apoC-II KO mice were created as described in Sakurai et al., J Pharmacol Exp Ther 356:341-353, 2016. The apoC-III transgenic mice were generated by overexpressing human apoC-III in C57Bl/6 mice. See Qu et al., J. Lipid Res. 48:1476-1487, 2007.
Mice were fasted overnight (approximately 12 hours) before the study and 6 hours during the study, the next day. The apoC-II mimetic peptides were synthetically produced and free of biological contamination (not available as FDA approved compounds/treatment). Peptides were produced and used in sterile conditions and filtered by 0.2 nm filter before injections in a single dose 1-10 μmol/kg body weight (B. W.) administered either subcutaneous injection (S.Q. or S.C.), intraperitoneal injection (I.P.) or intravenous injection (I.V.) (in a sterile, pharmaceutical grade PBS solution at a volume ≤200 μL) as described in Sakurai et al., J Pharmacol Exp Ther 356:341-353, 2016.
In some experiments, each animal received 20% Intralipid (FDA approved, Fresenius Kabi, Uppsala, Sweden) in a single dose either by oral gavage (using special sterile single-use non-toxic animal feeding needles) in a dose 10-20 μL/gram body weight (B.W.) (Tuzcu et al. Drug Chem Toxicol 37: 261-267, 2014; Kusminski et al. Nature Medicine 18: 1539-1549, 2012), or by intraperitoneal injection in a single bolus of 0.1-1.0 mL (Mahadero et al. American J Surgery 164: 45-50, 1992), or by intragastric administration of a dietetic commercially-available liquid oil (food grade vegetable, corn, soy or olive oil) in a single dose 10-20 μL/gram body weight. These oils were a source of TG—when absorbed TG tends to be broken down within 3 h (peak in 30 min) (Kritchevsky Nutritional Biochemistry 6:172-178, 1995). Blood samples (20-30 μL) were obtained from the retro-orbital plexus at time points: −1 h, 0 h, 1 h, 3 h, 6 h and 24 h for measurements of lipids. Mice were returned to metabolic cages after the 6 h time point where the food was put back. Once the study was completed (after 24 hours from the fat administration), mice were euthanized and organs collected.

[3] = test system: lipoproteins of human serum; assay: incubation of human serum with exogenous apoC-II-a; type: binding; details: doses comparable to that achieved in vivo in mice
[4] = SEC-FPLC, 1 μmole/kg, 6 hours after injection, FIG. 41

Sequence	dose dependence of effect ([1]; 1 and 5 mg/kg intravenous)	VLDL level ([1]; FIG. 48A)	LDL level ([1]; FIG. 48B)	HDL level ([1]; FIG. 48C)	plasma TG level ([1]; single intravenous injection, 1 and 5 mg/kg, 24 h, 48 h, and 72 h after the injection)	time of maximum reduction of plasma TG (apoC-II knockout mice; 0.1 μmol/kg intraperitoneally, after the peptide injection)	plasma TG (apoC-II knockout mice; 0.1 μmol/kg of body weight intraperitoneally, FIG. 53)	level of HDL as measured by the phospholipid level (apoC-II knockout mice; [4])	level of VLDL as measured by the phospholipid level (apoC-II knockout mice; [4])	level of TG in the VLDL pool (apoC-II knockout mice; SEC-FPLC, 1 μmole/kg, FIG. 42)	plasma TG (apoC-II knockout mice; intraperitoneal injection)	plasma TG (apoC-II knockout mice; repeat IP injection at 24 h intervals for 6 days, 0.25 and 1 μmole/kg, FIG. 40)	plasma TG (apoC-II knockout mice; subcutaneous injection)	effect on inhibition of LPL by apoC-III [2]	effect on inhibition of LPL by apoC-III ([2]; listed as ApoC-II-a)	post-prandial TG rise (C57BL/6 mice (wild-type))	binding to lipoproteins and apolipoprotein displacement [3]
DYLKEVFEKLRDLYEKFTPAVSTYTGIFTDQVLSVLKGEE [Delta6PV]	dose-dependent	marked reduction of the VLDL level	did not change significantly	did not change significantly	significant reduction of plasma TG level	about 6 hours	rapid reduction of plasma TG	increased	decreased	decreased	rapid and marked reduction of plasma TG	marked and lasting reduction of plasma TG	rapid and marked reduction of plasma TG	–	–	–	–
DWLKAFYDKVAEKLKEAFPAMSTYTGIFTDQVLSVLKGEE (listed as Homo sapiens) [apoC-II-a, excluded from the claimed peptides]	–	–	–	–	–	–	–	–	–	–	–	–	–	overcame the inhibitory effect of apoC-III and facilitated lipolysis in a dose-dependent manner	overcomes the inhibition by apoC-III	almost completely blunted	binds to all lipoproteins, including HDL and causes the displacement of apoC-I and apoC-III
